Measured values published in patent US10206394B2, “Herbicidal compounds” (Syngenta Participations AG, priority 2014, dated 2019).
Like-named read-outs stand apart in the source and are kept apart here.

Legend:
Type in all cases: in vivo
[1] = tested on: Winter Wheat variety 'Hereward'; assay: Glasshouse assay for crop safety, post-emergence, +/- safener cloquintocet-mexyl (CQC), percentage phytotoxicity; conditions: 250 g/ha, evaluated after 13 days, 100=total damage, 0=no damage; for Post-emergence Crop Selectivity, percentage phytotoxicity, Wheat +CQC: with safener cloquintocet-mexyl (CQC) seed treatment 0.5 g/kg seed; for Post-emergence Crop Selectivity, percentage phytotoxicity, Wheat − CQC: without safener cloquintocet-mexyl (CQC)
From the text: Test—Glasshouse Assay for Crop Safety.
Seeds of the Winter Wheat variety ‘Hereward’ were seed treated with a wettable powder formulation of the cereal herbicide safener, cloquintocet mexyl, at a rate of 0.5 grams per kilogram of dry seed prior to the initiation of glasshouse testing. Three seeds were sown per 1.5 inch plastic pot into a sandy loam soil at a depth of 1 cm, 8 days prior to application of the test compounds and was watered and grown under controlled conditions in a glasshouse (at 24/16° C., day/night; 14 hours light; 65% humidity). The plants were sprayed Post-emergence with an aqueous spray solution derived from the formulation of the technical active ingredient in acetone/water (50:50) solution containing 0.5% Tween 20 (polyoxyethelyene sorbitan monolaurate, CAS RN 9005-64-5).
The test plants were then grown in a glasshouse under controlled conditions (at 24/16° C., day/night; 14 hours light; 65% humidity) and watered twice daily. After 13 days for pre and post-emergence, the test was evaluated (100=total damage to plant; 0=no damage to plant).

[2] = tested on: Alopecurus myosuroides (ALOMY); assay: Glasshouse assay for herbicidal activity (pre- and post-emergence), percentage phytotoxicity; conditions: Alopecurus myosuroides, Rate 250 g/ha, 100%=total damage, 0%=no damage
How it was run: (§1)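 Visual phytotoxicity score, 0% = undamaged to 100% = total kill, read 20 days after treatment for PRE and 15 days for POST. Pots of standard soil; treatment at day 1 (PRE) or roughly day 12 (POST). Glasshouse: 16 h photoperiod, 65% RH, 24/18 or 20/16 °C by climate type.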

Avena fatua (AVEFA) = assay: as above; conditions: Avena fatua, Rate 250 g/ha, 100%=total damage, 0%=no damage
How it was run: as §1

[3] = tested on: Echinochloa crus-galli (ECHCG); assay: as above; conditions: Echinochloa crus-galli, Rate 250 g/ha, 100%=total damage, 0%=no damage
How it was run: as §1

Lolium perenne (LOLPE) = assay: as above; conditions: Lolium perenne, Rate 250 g/ha, 100%=total damage, 0%=no damage
How it was run: as §1

[4] = post-emergence, 360 h, post-emergence, assessed visually 15 DAA, read-out: Post-emergence herbicidal activity (percentage phytotoxicity) ALOMY POST
[5] = pre-emergence, 480 h, pre-emergence, assessed visually 20 DAA, read-out: Pre-emergence herbicidal activity (percentage phytotoxicity) ALOMY PRE
[6] = post-emergence, 360 h, post-emergence, assessed visually 15 DAA, read-out: Post-emergence herbicidal activity (percentage phytotoxicity) AVEFA POST
[7] = pre-emergence, 480 h, pre-emergence, assessed visually 20 DAA, read-out: Pre-emergence herbicidal activity (percentage phytotoxicity) AVEFA PRE
[8] = post-emergence, 360 h, post-emergence, assessed visually 15 DAA, read-out: Post-emergence herbicidal activity (percentage phytotoxicity) ECHCG POST
[9] = pre-emergence, 480 h, pre-emergence, assessed visually 20 DAA, read-out: Pre-emergence herbicidal activity (percentage phytotoxicity) ECHCG PRE
[10] = post-emergence, 360 h, post-emergence, assessed visually 15 DAA, read-out: Post-emergence herbicidal activity (percentage phytotoxicity) LOLPE POST
[11] = pre-emergence, 480 h, pre-emergence, assessed visually 20 DAA, read-out: Pre-emergence herbicidal activity (percentage phytotoxicity) LOLPE PRE

| Compound | Post-emergence Crop Selectivity, percentage phytotoxicity, Wheat +CQC [1] [%] | Post-emergence Crop Selectivity, percentage phytotoxicity, Wheat − CQC [1] [%] | pest or weed control at 250 g/ha [2, 4] [%] | pest or weed control at 250 g/ha [2, 5] [%] | pest or weed control at 250 g/ha (Avena fatua (AVEFA); [6]) [%] | pest or weed control at 250 g/ha (Avena fatua (AVEFA); [7]) [%] | pest or weed control at 250 g/ha [3, 8] [%] | pest or weed control at 250 g/ha [3, 9] [%] | pest or weed control at 250 g/ha (Lolium perenne (LOLPE); [10]) [%] | pest or weed control at 250 g/ha (Lolium perenne (LOLPE); [11]) [%] |
| --- | --- | --- | --- | --- | --- | --- | --- | --- | --- | --- |
| COCC(C)NC(=O)CC1CC(=O)C(c2c(C)cc(C)cc2C)C1=O (centres unmarked) [Compound A16] | 30 | 80 | 90 | 90 | 90 | 90 | 100 | 100 | 80 | 80 |
| Cc1cc(-n2cc(Cl)cn2)cc(C)c1C1C(=O)CC(CC(=O)NC2CCCC2)C1=O (centres unmarked) [Compound A70] | 20 | 70 | 90 | 70 | 70 | 70 | 90 | 100 | 70 | 70 |
| Cc1cc(C)c(C2C(=O)CC(CC(=O)NC3CCCC3)C2=O)c(C)c1 (centres unmarked) [Compound A21] | 0 | 60 | 80 | 70 | 70 | 50 | 80 | 80 | 80 | 80 |
| CCC(C)(C)NC(=O)CC1CC(=O)C(c2c(C)cc(C)cc2C)C1=O (centres unmarked) [Compound A27] | 20 | 30 | 80 | 70 | 80 | 70 | 80 | 80 | 80 | 80 |
| CCCNC(=O)CC1CC(=O)C(c2c(C)cc(C)cc2C)C1=O (centres unmarked) [Compound A26] | 40 | 70 | 80 | 80 | 80 | 70 | 80 | 80 | 90 | 100 |
| CC#Cc1cc(C)c(C2C(=O)CC(CC(=O)NCC(=O)C(C)(C)C)C2=O)c(C)c1 (centres unmarked) [Compound A59] | 50 | 80 | 90 | 100 | 90 | 70 | 90 | 90 | 70 | 70 |
| Cc1cc(-n2cc(Cl)cn2)cc(C)c1C1C(=O)CC(CC(=O)NC2(c3ccccn3)CC2)C1=O (centres unmarked) [Compound A73] | 20 | 80 | 70 | 70 | 80 | 10 | 90 | 90 | 40 | 30 |
| Cc1cc(-c2ccc(Cl)cn2)cc(C)c1C1C(=O)CC(CC(=O)NCc2cccc(C(F)(F)F)c2)C1=O (centres unmarked) [Compound A146] | 50 | 80 | 100 | 80 | 100 | 90 | 100 | 90 | 100 | 90 |
